Reference: patent US6423508B1, “Polynucleotide sequences of human EDG-1c” (SmithKline Beecham Corporation, priority 1998, dated 2002)
Like-named read-outs stand apart in the source and are kept apart here. Values belong to the compound of their own block, whether it stands above or below them.

Columns and labels:
[1] = system: endogenous receptors of RBL 2H3 cells; assay: Responses of control ligands of endogenous receptors in RBL 2H3 EDG-1c cells (calcium mobilization, FLIPR); type: cell-based; settings: FIG. 8
Procedure: (§1) A number of cell lines were examined to identify one that would not respond to S-1-P through an endogenous receptor. […] Stable cell lines of the EDG1-c receptor were prepared in RBL 2H3 cell line. The expression of functionally active clones were followed using Fluorescent imaging plate reader (FLIPR).

[2] = system: untransfected HEK 293 cells (endogenous receptors that respond to S-1-P); assay: S-1-P-induced Ca2+ mobilization in untransfected HEK 293 cells (FLIPR); type: cell-based; settings: FIG. 3
Description: The data were generated with the 96 well Fluorescent Imaging Plate Reader (FLIPR). Each point is the mean of 6-8 wells read on FLIPR.

[3] = biological target: T1, human EDG-1c receptor (Homo sapiens, UniProt P21453); assay: S-1-P-induced FUS1-LacZ reporter gene expression in yeast expressing human EDG-1c; type: cell-based; settings: yeast FUS1-LacZ cells expressing human EDG-1c, FIG. 5
T1 construct: expressed in transfected cells
Description: The yeast strain(s) used contain mutations in genes in the pheromone response pathway, e.g., (i) deletion of the STE2 or STE3 gene encoding the endogenous G-protein coupled pheromone receptors; (ii) deletion of the FAR1 gene encoding a protein that normally associates with cyclin-dependent kinases leading to cell cycle arrest; and (iii) construction of reporter genes fused to the FUS1 gene promoter (where FUS1 encodes a membrane-anchored glycoprotein required for cell fusion). The downstream reporter (FUS1-LacZ) permits a colorimetric or fluorimetric readout in response to ligand.

[4] = system: rat neonatal cardiomyocytes; assay: Cellular hypertrophy in rat neonatal cardiomyocytes in culture; type: cell-based
Procedure: […] was tested in its ability to induce hypertrophy in an in vitro neonatal cardiomyocyte model. The assessment of cardiomyocyte hypertrophy is measured using four different parameters: protein synthesis (tritiated phenylalanine incorporation and protein content increase), tritiated thymidine incorporation (evaluation of fibroblast contamination), Brain Natriuretic Peptide (BNP) release and morphological parameters. Phenylephrine (PE) at 100 μM concentration is used as internal control experiments. […] Cardiomyocytes in culture display features of myocyte hypertrophy observed in vivo, such as changes in morphology (vizualised using light microscopy after staining with crystal violet), protein content, and pattern of gene expression.

[5] = system: isolated perfused rabbit heart; assay: Functional effects on isolated perfused rabbit heart; settings: 10 nM
Procedure: The functional effects of […] have been examined in isolated perfused rabbit heart. […] An increased in AoP (aortic pressure), reflecting a vasoconstrictor effect was observed, i.e., about 30% of increase at 5 min of treatment compared to the vehicle (methanol 0.001%).

[6] = biological target: T1, human EDG-1c receptor; assay: Calcium mobilization in RBL 2H3 cells stably transfected with human EDG-1c receptor (FLIPR); type: cell-based
Procedure: as §1

T1 sequence (P21453 whole entry): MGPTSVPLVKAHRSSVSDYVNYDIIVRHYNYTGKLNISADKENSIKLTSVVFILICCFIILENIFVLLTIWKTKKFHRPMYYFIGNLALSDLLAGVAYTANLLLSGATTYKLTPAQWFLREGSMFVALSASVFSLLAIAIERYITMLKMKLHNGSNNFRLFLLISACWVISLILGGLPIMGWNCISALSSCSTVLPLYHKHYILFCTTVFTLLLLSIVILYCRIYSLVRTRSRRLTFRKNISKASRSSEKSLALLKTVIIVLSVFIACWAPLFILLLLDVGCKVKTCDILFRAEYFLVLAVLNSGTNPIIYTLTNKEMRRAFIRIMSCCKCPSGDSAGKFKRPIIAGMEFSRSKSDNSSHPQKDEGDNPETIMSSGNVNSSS

Compound: Nc1ncnc2c1ncn2[C@@H]1O[C@H](COP(=O)(O)OP(=O)(O)OP(=O)(O)O)[C@@H](O)[C@H]1O [ATP]
EC50 of endogenous-receptor ligands [1]: expected EC50 values

Compound: C[C@@H]1O[C@H](C[N+](C)(C)C)C[C@H]1O [Muscarine]
response of RBL 2H3 EDG-1c cells to control ligand [1]: did not respond

Compound: CCCCCCCCCCCCCCCC(O)C(N)COP(=O)(O)O (stereo not drawn) [dihydro-S-1-P, di-hydro sphingosine 1-phosphate]
EC50 [6]: 10 to 20 nM

Compound: sphingosine phosphorylcholine
EC50, calcium mobilization through the EDG1-c receptor (in words) ([6]; best clones, FIG. 8): in the uM range
calcium mobilization response of RBL 2H3 EDG-1c cells ([6]; best clones, FIG. 8): weakly

The next lines start with results.

expression of beta-galactosidase (FUS1-LacZ reporter response) [3]: receptor-dependent response
EC50 ([6]; several RBL 2H3 EDG1-c clones, FIG. 7, read-out: EC50, calcium mobilization, best clones): 10 to 20 nM
Compound: CCCCCCCCCCCCC/C=C/[C@@H](O)[C@@H](N)COP(=O)(O)O [S-1-P, sphingosine 1-phosphate]
calcium mobilization response [2]: robust calcium mobilization response
cellular hypertrophy (increase of protein content, phenylalanine incorporation and BNP secretion to control cell values) ([4]; 10 nM, 100 nM and 1 μM (n=3), each concentration): induced a cellular hypertrophy
increase of phenylalanine incorporation to the control cell values ([4]; 1 μM (n=3)): 30.1%±9.2
increase of protein content to the control cell values ([4]; 1 μM (n=3)): 35.6%±6.3
increase of thymidine incorporation to the control cell values ([4]; 1 μM (n=3)): 11.4%±1.8
BNP secretion vs. control ([4]; S-1-P treated cardiomyocyte vs. control): four fold higher
LVEDP (left ventricular end-diastolic pressure) [5]: marked reduction
increase in AoP (aortic pressure), vasoconstrictor effect ([5]; at 5 min of treatment, compared to the vehicle (methanol 0.001%)): about 30%
inotropic effect (pressure value) ([5]; at 10 min of drug administration, controls 96.09±6 mm Hg): 84.7±6.3 mm Hg

EC50 of endogenous-receptor ligands [1]: expected EC50 values
Compound: CCCCC/C=C\C\C=C/C=C/C=C/[C@@H](SC[C@H](N)C(=O)NCC(=O)O)[C@@H](O)CCCC(=O)O [leukotriene D4]

calcium mobilization response of RBL 2H3 EDG-1c cells ([6]; best clones, FIG. 8): did not respond
Compound: lysophosphatidic acid
